“And” between values parts separate entries of the source, which are not always exact repeats. Identical values can stand only once.
What was measured:
Format in all cases: functional, Homo sapiens
Parameters in all cases: dose or concentration left out as unconfirmed
Colon cancer organoid [1] = test: (§1) Image-based profiling of donated chemical probes and chemogenomic kinase set in O21 CRC organoid. Image analysis is performed on the sum area metric, and the data were normalized to the DMSO control. After imaging the organoid viability is measured using the OneGloEX Luciferase Assay System. The normalized viability data and sum area are reported.
Colon cancer organoid [2] = test: as §1, with “O06” for “O21”
Colon cancer organoid [3] = test: as §1, with “O09” for “O21”

Row | SMILES | Cell Viability (Colon cancer organoid [1]; Replication number 1) | Cell Viability (Colon cancer organoid [1]; Replication number 2) | Cell Viability (Colon cancer organoid [2]; Replication number 1) | Cell Viability (Colon cancer organoid [2]; Replication number 2) | Cell Viability (Colon cancer organoid [3]; Replication number 1) | Cell Viability (Colon cancer organoid [3]; Replication number 2)
1 | O=C(NCCN1CCOCC1)c1ccc2c(c1)C(=O)c1ccc(Nc3ccc(F)c(NC(=O)c4ccccc4)c3)cc1CC2 [FS-694] | 104.56% and 105.311% | 87.9959% and 93.3039% | 84.5729% and 99.5951% | 109.979% and 139.596% | 75.6733% and 93.7852% | 52.7357% and 85.0515%
2 | c1ccc2oc(-c3csc(C4CCN(Cc5nc6ncccc6[nH]5)CC4)n3)cc2c1 | 94.2166% and 105.311% | 87.22% and 87.1856% | 71.3349% and 100.567% | 106.728% and 127.102% | 82.621% and 84.4067% | 113.991% and 112.807%
3 | CCC(=O)N[C@H]1CC[C@@H](C(=O)N(C)c2ccc(-c3nc4ccccc4o3)cc2)C1 [BI 99179] | 140.434% and 105.951% | 114.409% and 97.9592% | 21.7258% and 60.1874% | 30.1767% and 66.0942% | 70.0522% and 46.8277% | 52.7511% and 35.3414%
4 | CN1C(=O)c2sccc2N(C)c2nc(Nc3ccc(S(N)(=O)=O)cc3)ncc21 | 57.1917% and 77.4913% | 65.5582% and 80.0288% | 15.9976% and 28.488% | 18.284% and 43.3933% | 28.4515% and 23.8118% | 41.5113% and 34.0138%
5 | Cc1c(Oc2ccc(F)cc2)c(OC(C)C)nn1-c1ccc(C2CC2)cn1 [IPP/CNRS-A019] | 82.2152% and 84.0306% | 88.4065% and 90.7546% | 86.662% and 99.3522% | 111.4% and 120.615% | 105.275% and 104.102% | 106.079% and 88.8184%
6 | COc1cc2c(cc1OCCCN1CCCC1)N=C(N)C21CCC1 | 92.2277% and 112.28% | 68.723% and 97.1957% | 110.816% and 131.678% | 106.27% and 117.339% | 70.9946% and 111.515% | 77.9538% and 123.155%
7 | Cn1nc(C(F)(F)F)cc1-c1cnc(N2CCc3cc(S(=O)(=O)Nc4c(F)cc(Cl)cc4F)cc(N4CCCC4=O)c32)nc1 [TP-020] | 100.4% and 89.0686% | 74.5209% and 80.6122% | 97.5497% and 105.152% | 112.528% and 137.4% | 176.236% and 116.591% | 145.95% and 107.484%
8 | O=C(O)c1ccc2c(c1)nc(Nc1cccc(Cl)c1)c1ccncc12 [SILMITASERTIB] | 103.567% and 112.056% | 102.008% and 128.967% | 95.4776% and 72.7779% | 97.8% and 96.4524% | 75.9271% and 48.6208% | 96.2856% and 65.3282%
9 | C[C@H](c1ccnc(Nc2nc3ccc(-c4cc(N(C)C)ncn4)cc3[nH]2)c1)N1CCN(C(=O)CC(F)(F)F)CC1 [BAY-985] | 79.4083% and 115.847% | 85.0487% and 108.163% | 90.8191% and 114.52% | 122.693% and 118.685% | 71.2214% and 105.601% | 101.014% and 89.9598%
10 | C[C@@H](c1cccc(CN)c1)n1cc(Cl)cc(C(N)=O)c1=N.Cl | 113.852% and 117.315% | 85.2053% and 83.6166% | 106.874% and 116.842% | 95.2274% and 108.361% | 102.95% and 110.479% | 109.454% and 89.4132%
11 | CNc1nc(-c2ccc3c(N)n[nH]c3c2)cc(N2C[C@@H](C(=O)NC3CCCCC3)CC[C@H]2C)n1 | 64.6112% and 105.857% | 53.2272% and 96.363% | 59.7664% and 83.0769% | 75.2742% and 90.8217% | 19.6659% and 24.7593% | 39.1039% and 41.4354%
12 | Cc1c(C(=O)Nc2ccc(Oc3ccnc4[nH]cc(-c5ccccc5)c34)c(F)c2)c(=O)n(-c2ccc(F)cc2)n1C | 102.708% and 102.021% | 105.094% and 114.574% | 83.9357% and 96.3695% | 67.8056% and 89.2545% | 202.234% and 105.47% | 155.309% and 109.6%
13 | Cl.Cl.Cl.c1ccc(N2CCN(Cc3nc4ccccc4[nH]3)CC2)nc1 | 123.058% and 103.622% | 81.1139% and 93.8775% | 75.342% and 94.3794% | 106.955% and 116.079% | 118.127% and 116.353% | 87.0048% and 88.7915%
